The assay addresses PCSK9 secreted by HepG2 cells (Homo sapiens (Human), UniProt Q8NBP7). Briefly: Effect on the concentration of PCSK9 secreted by HepG2 cells (ELISA). Format: cell-based. To be noted: 48 hours incubation, read-out: Inhibitory activity on PCSK9, IC50.

Consider three compounds from patent US20250326722A1 (SHANGHAI HANSOH BIOMEDICAL CO., LTD., priority 2022, published 2025).

SMILES strings stand for the structures.

Sequence of PCSK9 secreted by HepG2 cells (Q8NBP7 153-692): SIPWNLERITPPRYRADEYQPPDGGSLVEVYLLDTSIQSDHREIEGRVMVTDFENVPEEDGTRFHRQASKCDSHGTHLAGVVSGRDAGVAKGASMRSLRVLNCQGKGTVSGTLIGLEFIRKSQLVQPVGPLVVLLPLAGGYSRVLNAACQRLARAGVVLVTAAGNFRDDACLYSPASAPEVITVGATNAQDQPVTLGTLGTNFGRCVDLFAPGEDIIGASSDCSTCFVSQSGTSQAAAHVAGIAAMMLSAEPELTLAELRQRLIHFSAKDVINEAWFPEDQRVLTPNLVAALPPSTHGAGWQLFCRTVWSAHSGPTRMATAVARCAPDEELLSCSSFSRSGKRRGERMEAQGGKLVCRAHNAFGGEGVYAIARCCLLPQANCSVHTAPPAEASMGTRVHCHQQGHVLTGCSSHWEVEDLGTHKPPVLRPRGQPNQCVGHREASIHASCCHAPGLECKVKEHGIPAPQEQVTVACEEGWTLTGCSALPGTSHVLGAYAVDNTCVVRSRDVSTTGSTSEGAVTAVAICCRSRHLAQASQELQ
Sequence of PCSK9 secreted by HepG2 cells (Q8NBP7 31-152 partner): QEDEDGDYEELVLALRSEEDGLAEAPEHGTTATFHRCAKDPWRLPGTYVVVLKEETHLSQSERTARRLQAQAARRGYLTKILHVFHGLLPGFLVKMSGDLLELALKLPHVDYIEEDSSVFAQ

For the compound `Cc1cc2c(cn1)CN(c1ccc(N[C@H]3CC[C@H](Nc4ncc(C(F)(F)F)nn4)C3)nc1)C2=O` [Example 148, 6-Methyl-2-(6-(((1S,3S)-3-((6-(trifluoromethyl)-1,2,4-triazin-3-yl)amino)cyclopentyl)amino)pyridin-3-yl)-2,3-dihydro-1H-pyrrolo[3,4-c]pyridin-1-one], the concentration for half-maximal inhibition (IC50) (in general, the concentration that gives 50% inhibition) was 9.4 µM.
On to `O=C1c2ncccc2CN1c1ccc(N[C@H]2CC[C@H](Nc3ncc(C(F)(F)F)nn3)C2)nc1` [Example 144], for which the 50% inhibitory concentration (IC50) came to 27.5 µM.
The same measure for `O=C1c2c(cccc2C(F)(F)F)CN1c1ccc(N[C@H]2CC[C@H](Nc3ncc(C(F)(F)F)nn3)C2)nc1` [Example 157, 7-(Trifluoromethyl)-2-(6-(((1S,3S)-3-((6-(trifluoromethyl)-1,2,4-triazin-3-yl)amino)cyclopentyl)amino)pyridin-3-yl) isoindolin-1-one]: 4.2 µM.
